Measured values reported in ChEMBL document CHEMBL1201862, “PubChem BioAssay data set” (2004).
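Cells were grown in 96-well plates and exposed to each compound for 48 hours at five concentrations; endpoints were interpolated linearly between bracketing concentrations, or set to the highest concentration if not reached. Abbreviation: GI50, concentration required for 50% inhibition of growth.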 The source made the active and inactive calls. No stated cut-off is given here; in the data, active = GI50 up to about 1.1 µM and inactive = higher.

Assays:
Test in all cases: NCI-60 cell line screen, 48 h
NCI/ADR-RES = tested on: NCI/ADR-RES
SNB-75 = tested on: SNB-75
MOLT-4 = tested on: MOLT-4
MDA-MB-231 = tested on: MDA-MB-231
DU-145 = tested on: DU-145
UACC-257 = tested on: UACC-257
OVCAR-5 = tested on: OVCAR-5
SN12C = tested on: SN12C
SR = tested on: SR
HCT-15 = tested on: HCT-15
SF-295 = tested on: SF-295
ACHN = tested on: ACHN
CAKI-1 = tested on: CAKI-1
UACC-62 = tested on: UACC-62
MCF7 = tested on: MCF7
IGROV-1 = tested on: IGROV-1
NCI-H460 = tested on: NCI-H460
KM12 = tested on: KM12
PC-3 = tested on: PC-3
A549 = tested on: A549
SK-MEL-28 = tested on: SK-MEL-28
SK-OV-3 = tested on: SK-OV-3
UO-31 = tested on: UO-31
HCC 2998 = tested on: HCC 2998
K562 = tested on: K562
OVCAR-3 = tested on: OVCAR-3
OVCAR-8 = tested on: OVCAR-8
HT-29 = tested on: HT-29
SK-MEL-5 = tested on: SK-MEL-5
M14 = tested on: M14
HL-60 = tested on: HL-60
A498 = tested on: A498
SF-539 = tested on: SF-539
SF-268 = tested on: SF-268
T47D = tested on: T47D
Malme-3M = tested on: Malme-3M
NCI-H522 = tested on: NCI-H522
OVCAR-4 = tested on: OVCAR-4
SW-620 = tested on: SW-620
NCI-H23 = tested on: NCI-H23
SNB-19 = tested on: SNB-19
COLO 205 = tested on: COLO 205
MDA-N = tested on: MDA-N
HCT-116 = tested on: HCT-116
Hs-578T = tested on: Hs-578T
RXF 393 = tested on: RXF 393
EKVX = tested on: EKVX
RPMI-8226 = tested on: RPMI-8226
MDA-MB-435 = tested on: MDA-MB-435
786-0 = tested on: 786-0
HOP-62 = tested on: HOP-62
TK-10 = tested on: TK-10
LOX IMVI = tested on: LOX IMVI
U-251 = tested on: U-251
CCRF-CEM = tested on: CCRF-CEM
NCI-H226 = tested on: NCI-H226
SK-MEL-2 = tested on: SK-MEL-2

`C1CCC(CC2CCC(NC3=NCCO3)CC2)CC1` (stereo not given) was tested, and the GI50 (NCI/ADR-RES) was 19.4 µM (inactive), the GI50 (SNB-75) was 18.2 µM (inactive) and the GI50 (MOLT-4) was 21.6 µM (inactive). For the same compound, the GI50 (MDA-MB-231) was 19.4 µM (inactive), the GI50 (DU-145) was 30 µM (inactive) and the GI50 (UACC-257) was 16.4 µM (inactive). For the same compound, the GI50 (OVCAR-5) was 23.6 µM (inactive), the GI50 (SN12C) was 19.8 µM (inactive) and the GI50 (SR) was 24.4 µM (inactive). For the same compound, the GI50 (HCT-15) was 12.3 µM, the GI50 (SF-295) was 19.7 µM (inactive) and the GI50 (ACHN) was 19.5 µM (inactive). For the same compound, the GI50 (CAKI-1) was 24.5 µM (inactive), the GI50 (UACC-62) was 17.3 µM (inactive) and the GI50 (MCF7) was 17.5 µM (inactive). For the same compound, the GI50 (IGROV-1) was 19.7 µM (inactive), the GI50 (NCI-H460) was 20.2 µM (inactive) and the GI50 (KM12) was 18.3 µM (inactive). For the same compound, the GI50 (PC-3) was 15.8 µM (inactive), the GI50 (A549) was 32.8 µM (inactive) and the GI50 (SK-MEL-28) was 18.1 µM (inactive). The GI50 (SK-OV-3) was 20.9 µM (inactive), the GI50 (UO-31) was 19.9 µM (inactive) and the GI50 (HCC 2998) was 20.7 µM (inactive). The GI50 (K562) was 14 µM (inactive), the GI50 (OVCAR-3) was 15.4 µM (inactive) and the GI50 (OVCAR-8) was 17.1 µM (inactive). The GI50 (HT-29) was 3.93 µM (inactive), the GI50 (SK-MEL-5) was 19.5 µM (inactive) and the GI50 (M14) was 18.9 µM (inactive). For the same compound, the GI50 (HL-60) was 17.9 µM (inactive), the GI50 (A498) was 26 µM (inactive) and the GI50 (SF-539) was 16.8 µM (inactive). The GI50 (SF-268) was 26 µM (inactive), the GI50 (T47D) was 24.4 µM (inactive) and the GI50 (Malme-3M) was 15.8 µM (inactive). For the same compound, the GI50 (NCI-H522) was 22.2 µM (inactive), the GI50 (OVCAR-4) was 20.2 µM (inactive) and the GI50 (SW-620) was 21.3 µM (inactive). For the same compound, the GI50 (NCI-H23) was 17.9 µM (inactive), the GI50 (SNB-19) was 17.3 µM (inactive) and the GI50 (COLO 205) was 14.2 µM (inactive). For the same compound, the GI50 (MDA-N) was 20.3 µM (inactive), the GI50 (HCT-116) was 15.5 µM (inactive) and the GI50 (Hs-578T) was 16.3 µM (inactive). For the same compound, the GI50 (RXF 393) was 18.3 µM (inactive), the GI50 (EKVX) was 22.1 µM (inactive) and the GI50 (RPMI-8226) was 26.1 µM (inactive). The GI50 (MDA-MB-435) was 17.4 µM (inactive), the GI50 (786-0) was 15.2 µM (inactive) and the GI50 (HOP-62) was 20.6 µM (inactive). The GI50 (TK-10) was 15.3 µM (inactive), the GI50 (LOX IMVI) was 16.1 µM (inactive) and the GI50 (U-251) was 18 µM (inactive). The GI50 (CCRF-CEM) was 26.1 µM (inactive), the GI50 (NCI-H226) was 18.8 µM (inactive) and the GI50 (SK-MEL-2) was 18.4 µM (inactive).
`Cc1cc(O)c(C(O)c2ccccn2)cc1O` (stereo not given) was tested, and the GI50 (NCI/ADR-RES) was 27.5 µM (inactive), the GI50 (SNB-75) was 14.7 µM (inactive) and the GI50 (MOLT-4) was 13.6 µM (inactive). The GI50 (MDA-MB-231) was 17.5 µM (inactive), the GI50 (DU-145) was 37.9 µM (inactive) and the GI50 (UACC-257) was > 10 µM (inactive). For the same compound, the GI50 (OVCAR-5) was 17.2 µM (inactive), the GI50 (SN12C) was 18.7 µM (inactive) and the GI50 (SR) was 3.01 µM (inactive). The GI50 (HCT-15) was 18.2 µM, the GI50 (SF-295) was > 100 µM (inactive) and the GI50 (ACHN) was 6.01 µM (inactive). For the same compound, the GI50 (CAKI-1) was 11.7 µM (inactive), the GI50 (UACC-62) was 14.5 µM (inactive) and the GI50 (MCF7) was 18.1 µM (inactive). For the same compound, the GI50 (IGROV-1) was 35.8 µM (inactive), the GI50 (NCI-H460) was 49.2 µM (inactive) and the GI50 (KM12) was 24.5 µM (inactive). For the same compound, the GI50 (PC-3) was 14.1 µM (inactive), the GI50 (A549) was 81.1 µM (inactive) and the GI50 (SK-MEL-28) was 18.7 µM (inactive). For the same compound, the GI50 (UO-31) was 19.1 µM (inactive), the GI50 (HCC 2998) was 21.3 µM (inactive) and the GI50 (K562) was 3.77 µM (inactive). For the same compound, the GI50 (OVCAR-3) was 15 µM (inactive), the GI50 (OVCAR-8) was 18.8 µM (inactive) and the GI50 (HT-29) was 21.4 µM (inactive). The GI50 (SK-MEL-5) was 23.2 µM (inactive), the GI50 (M14) was 20.2 µM (inactive) and the GI50 (HL-60) was 11.1 µM (inactive). For the same compound, the GI50 (SF-539) was 38.8 µM (inactive), the GI50 (SF-268) was 75.7 µM (inactive) and the GI50 (T47D) was > 10 µM (inactive). For the same compound, the GI50 (Malme-3M) was 20.7 µM (inactive), the GI50 (NCI-H522) was 3.78 µM (inactive) and the GI50 (SW-620) was 21.1 µM (inactive). For the same compound, the GI50 (NCI-H23) was 18 µM (inactive), the GI50 (SNB-19) was 55.3 µM (inactive) and the GI50 (COLO 205) was 10 µM (inactive). For the same compound, the GI50 (MDA-N) was 18.7 µM (inactive), the GI50 (HCT-116) was 16.7 µM (inactive) and the GI50 (Hs-578T) was 45.8 µM (inactive). The GI50 (RXF 393) was 16.3 µM (inactive), the GI50 (EKVX) was 18.2 µM (inactive) and the GI50 (RPMI-8226) was 20.4 µM (inactive). For the same compound, the GI50 (MDA-MB-435) was 18.7 µM (inactive), the GI50 (786-0) was 19.1 µM (inactive) and the GI50 (HOP-62) was 89.1 µM (inactive). For the same compound, the GI50 (TK-10) was 16.6 µM (inactive), the GI50 (LOX IMVI) was 16.5 µM (inactive) and the GI50 (U-251) was 36.7 µM (inactive). For the same compound, the GI50 (CCRF-CEM) was 3.21 µM (inactive) and the GI50 (NCI-H226) was > 10 µM (inactive).
